Reference: patent US8759535B2, “Substituted fused imidazole derivatives, pharmaceutical compositions, and methods of use thereof” (High Point Pharmaceuticals, LLC, priority 2010, dated 2014)
Where a name gives a salt, the structure may show the parent alone.

tested on: HMOX1; assay: HMOX1 Protein Assay (immunostaining of HO-1 in NHLF cells, GE InCell 1000); assay type: cell-based; conditions: Homo sapiens, fold change above DMSO treated cells, 5 μM compound, 16 h
Method in brief: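 Fold induction of HO-1 over vehicle, normally at 5 μM compound (asterisk marks 3 μM), in 0.8% DMSO medium. Normal human lung fibroblasts were treated 16 h, then paraformaldehyde-fixed, anti-HO-1/Alexa 488 stained with Hoechst, and read by high-content imaging.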

Structure (SMILES) | fold induction at 5 µM
CCn1c(Nc2nc3ccc(OC(F)(F)F)cc3s2)nc2cc(C(=O)O)ccc21 [Example 154, 1-Ethyl-2-(6-trifluoromethoxy-benzothiazol-2-ylamino)-1H-benzoimidazole-5-carboxylic acid] | 27.1
CCn1c(Nc2nc3ccc(OC(F)(F)F)cc3s2)nc2cc(C(=O)NC)ccc21 [Example 155, 1-Ethyl-2-(6-trifluoromethoxy-benzothiazol-2-ylamino)-1H-benzoimidazole-5-carboxylic acid methylamide] | 24.3
CCNC(=O)c1ccc2c(c1)nc(Nc1nc3ccc(OC(F)(F)F)cc3s1)n2CC [Example 156, 1-Ethyl-2-(6-trifluoromethoxy-benzothiazol-2-ylamino)-1H-benzoimidazole-5-carboxylic acid ethylamide] | 21
CCOCCNC(=O)c1ccc2c(c1)nc(Nc1nc3ccc(OC(F)(F)F)cc3s1)n2CC [Example 157, 1-Ethyl-2-(6-trifluoromethoxy-benzothiazol-2-ylamino)-1H-benzoimidazole-5-carboxylic acid (2-ethoxy-ethyl)-amide] | 22.1
COC(=O)c1ccc2c(c1)nc(Nc1nc3ccc(OC(F)(F)F)cc3s1)n2C(C)C [Example 158, 1-Isopropyl-2-(6-trifluoromethoxy-benzothiazol-2-ylamino)-1H-benzoimidazole-5-carboxylic acid methyl ester] | 1.7
CC(C)n1c(Nc2nc3ccc(OC(F)(F)F)cc3s2)nc2cc(C(=O)O)ccc21 [Example 159, 1-Isopropyl-2-(6-trifluoromethoxy-benzothiazol-2-ylamino)-1H-benzoimidazole-5-carboxylic acid] | 26.7
CNC(=O)c1ccc2c(c1)nc(Nc1nc3ccc(OC(F)(F)F)cc3s1)n2C(C)C [Example 160, 1-Isopropyl-2-(6-trifluoromethoxy-benzothiazol-2-ylamino)-1H-benzoimidazole-5-carboxylic acid methylamide] | 22.9
CCNC(=O)c1ccc2c(c1)nc(Nc1nc3ccc(OC(F)(F)F)cc3s1)n2C(C)C [Example 161, 1-Isopropyl-2-(6-trifluoromethoxy-benzothiazol-2-ylamino)-1H-benzoimidazole-5-carboxylic acid ethylamide] | 19.1
CC(C)Cn1c(Nc2nc3ccc(OC(F)(F)F)cc3s2)nc2cc(C(=O)O)ccc21 [Example 163, 1-Isobutyl-2-(6-trifluoromethoxy-benzothiazol-2-ylamino)-1H-benzoimidazole-5-carboxylic acid] | 26.3
CNC(=O)c1ccc2c(c1)nc(Nc1nc3ccc(OC(F)(F)F)cc3s1)n2CC(C)C [Example 164, 1-Isobutyl-2-(6-trifluoromethoxy-benzothiazol-2-ylamino)-1H-benzoimidazole-5-carboxylic acid methylamide] | 20.5
CCNC(=O)c1ccc2c(c1)nc(Nc1nc3ccc(OC(F)(F)F)cc3s1)n2CC(C)C [Example 165, 1-Isobutyl-2-(6-trifluoromethoxy-benzothiazol-2-ylamino)-1H-benzoimidazole-5-carboxylic acid ethylamide] | 17.9
COCCn1c(Nc2nc3ccc(OC(F)(F)F)cc3s2)nc2cc(C(=O)O)ccc21 [Example 166, 1-(2-Methoxy-ethyl)-2-(6-trifluoromethoxy-benzothiazol-2-ylamino)-1H-benzoimidazole-5-carboxylic acid] | 22.4
CNC(=O)c1ccc2c(c1)nc(Nc1nc3ccc(OC(F)(F)F)cc3s1)n2CCOC [Example 167, 1-(2-Methoxy-ethyl)-2-(6-trifluoromethoxy-benzothiazol-2-ylamino)-1H-benzoimidazole-5-carboxylic acid methylamide] | 24.2
COCCNC(=O)c1ccc2c(c1)nc(Nc1nc3ccc(OC(F)(F)F)cc3s1)n2CCOC [Example 168, 1-(2-Methoxy-ethyl)-2-(6-trifluoromethoxy-benzothiazol-2-ylamino)-1H-benzoimidazole-5-carboxylic acid (2-methoxy-ethyl)-amide] | 21.9
CCOCCNC(=O)c1ccc2c(c1)nc(Nc1nc3ccc(OC(F)(F)F)cc3s1)n2CCOC [Example 169, 1-(2-Methoxy-ethyl)-2-(6-trifluoromethoxy-benzothiazol-2-ylamino)-1H-benzoimidazole-5-carboxylic acid (2-ethoxy-ethyl)-amide] | 24.4
CNC(=O)c1ccc2c(c1)nc(Nc1nc3ccc(OC(F)(F)F)cc3s1)n2CCF [Example 170, 1-(2-Fluoro-ethyl)-2-(6-trifluoromethoxy-benzothiazol-2-ylamino)-1H-benzoimidazole-5-carboxylic acid methylamide] | 23
COCCNC(=O)c1ccc2c(c1)nc(Nc1nc3ccc(OC(F)(F)F)cc3s1)n2CCF [Example 171, 1-(2-Fluoro-ethyl)-2-(6-trifluoromethoxy-benzothiazol-2-ylamino)-1H-benzoimidazole-5-carboxylic acid (2-methoxy-ethyl)-amide] | 22.8

Structure (SMILES) | fold induction at 5 µM
CCOCCNC(=O)c1ccc2c(c1)nc(Nc1nc3ccc(OC(F)(F)F)cc3s1)n2CCF [Example 172, 1-(2-Fluoro-ethyl)-2-(6-trifluoromethoxy-benzothiazol-2-ylamino)-1H-benzoimidazole-5-carboxylic acid (2-ethoxy-ethyl)-amide] | 21.4
CNC(=O)c1ccc2c(c1)nc(Nc1nc3ccc(OC(F)(F)F)cc3s1)n2CCN [Example 173, 1-(2-Amino-ethyl)-2-(6-trifluoromethoxy-benzothiazol-2-ylamino)-1H-benzoimidazole-5-carboxylic acid methylamide hydrochloride] | 21.4
CCn1c(Nc2nc3ccc(Cl)cc3s2)nc2cc(C(=O)NC)ccc21 [Example 174, 2-(6-Chloro-benzothiazol-2-ylamino)-1-ethyl-1H-benzoimidazole-5-carboxylic acid methylamide] | 26.2
CCNC(=O)c1ccc2c(c1)nc(Nc1nc3ccc(Cl)cc3s1)n2CC [Example 175, 2-(6-Chloro-benzothiazol-2-ylamino)-1-ethyl-1H-benzoimidazole-5-carboxylic acid ethylamide] | 28.7
CCn1c(Nc2nc3ccc(Cl)cc3s2)nc2cc(C(=O)NCCF)ccc21 [Example 176, 2-(6-Chloro-benzothiazol-2-ylamino)-1-ethyl-1H-benzoimidazole-5-carboxylic acid (2-fluoro-ethyl)-amide] | 25.8
CCn1c(Nc2nc3ccc(Cl)cc3s2)nc2cc(C(=O)NCCOC)ccc21 [Example 177, 2-(6-Chloro-benzothiazol-2-ylamino)-1-ethyl-1H-benzoimidazole-5-carboxylic acid (2-methoxy-ethyl)-amide] | 30.3
CCn1c(Nc2nc3ccc(Cl)cc3s2)nc2cc(C(=O)NCC(C)(C)OC)ccc21 [Example 178, 2-(6-Chloro-benzothiazol-2-ylamino)-1-ethyl-1H-benzoimidazole-5-carboxylic acid (2-methoxy-2-methyl-propyl)-amide] | 25.7
CCOCCNC(=O)c1ccc2c(c1)nc(Nc1nc3ccc(Cl)cc3s1)n2CC [Example 179, 2-(6-Chloro-benzothiazol-2-ylamino)-1-ethyl-1H-benzoimidazole-5-carboxylic acid (2-ethoxy-ethyl)-amide] | 24.4
CCn1c(Nc2nc3ccc(C(F)(F)F)cc3s2)nc2cc(C(=O)NC)ccc21 [Example 180, 1-Ethyl-2-(6-trifluoromethyl-benzothiazol-2-ylamino)-1H-benzoimidazole-5-carboxylic acid methylamide] | 12.4
CCNC(=O)c1ccc2c(c1)nc(Nc1nc3ccc(C(F)(F)F)cc3s1)n2CC [Example 181, 1-Ethyl-2-(6-trifluoromethyl-benzothiazol-2-ylamino)-1H-benzoimidazole-5-carboxylic acid ethylamide] | 23
CCn1c(Nc2nc3ccc(C(F)(F)F)cc3s2)nc2cc(C(=O)NCCOC)ccc21 [Example 182, 1-Ethyl-2-(6-trifluoromethyl-benzothiazol-2-ylamino)-1H-benzoimidazole-5-carboxylic acid (2-methoxy-ethyl)-amide] | 13
CCn1c(Nc2nc3ccc(C(F)(F)F)cc3s2)nc2cc(C(=O)NCC(C)(C)OC)ccc21 [Example 184, 1-Ethyl-2-(6-trifluoromethyl-benzothiazol-2-ylamino)-1H-benzoimidazole-5-carboxylic acid (2-methoxy-2-methyl-propyl)-amide] | 9.5
CCn1c(Nc2nc3ccc(C(F)(F)F)cc3s2)nc2cc(C(=O)NCCSC)ccc21 [Example 185, 1-Ethyl-2-(6-trifluoromethyl-benzothiazol-2-ylamino)-1H-benzoimidazole-5-carboxylic acid (2-methylsulfanyl-ethyl)-amide] | 11.2
CCn1c(Nc2nc3ccc(OC(F)(F)F)cc3s2)nc2cc(C(=O)NCC(=O)N(C)C)ccc21 [Example 186, 1-Ethyl-2-(6-trifluoromethoxy-benzothiazol-2-ylamino)-1H-benzoimidazole-5-carboxylic acid dimethylcarbamoylmethyl-amide] | 20.2
CCn1c(Nc2nc3ccc(C(F)(F)F)cc3s2)nc2cc(C(=O)NCC(=O)N(C)C)ccc21 [Example 187, 1-Ethyl-2-(6-trifluoromethyl-benzothiazol-2-ylamino)-1H-benzoimidazole-5-carboxylic acid dimethylcarbamoylmethyl-amide] | 18.4
COCCn1c(Nc2nc3ccc(OC(F)(F)F)cc3s2)nc2cc(C(=O)NCC(=O)N(C)C)ccc21 [Example 188, 1-(2-Methoxy-ethyl)-2-(6-trifluoromethoxy-benzothiazol-2-ylamino)-1H-benzoimidazole-5-carboxylic acid dimethylcarbamoylmethyl-amide] | 18.3
